“Also recorded” adds a separate entry of the source. Where no end group is shown, it is not given here. [ ]: non-standard residue; d: D form.
Experiments:
[1] = active LP adopt non-lamellar aggregates, inactive a lamellar aggregate structure; cited from earlier work
Excerpt: Similar arguments regarding the bioactive conical conformation of ...

human mononuclear cells = assay: TNFα production in human mononuclear cells (MNC) stimulated by LP, LTA or PGN, and its inhibition by SALP; assay type: cell-based; details: for stimulation of MNC (TNFα induction) compared with LPS / TNFα when adding 100 ng/ml of LP / concentration necessary to induce an observable TNFα secretion: human MNC; for stimulation of MNC (TNFα induction) compared with LPS: 4 h, ELISA
Description: The stimulation of MNC was performed as described previously. Briefly, MNC were isolated from heparinized blood of healthy donors by the Hypaque-Ficoll density gradient method. The cell number was equilibrated at 5 × 10^6 cells/ml RPMI 1640 containing 2 mM L-glutamine, 100 U/ml penicillin and 100 μg/ml streptomycin. For stimulation, 200 μl/well MNC were transferred into 96-well culture plates. The stimuli were serially diluted in RPMI 1640 and added to the cultures at 20 μl per well. The cultures were incubated for 4 h at 37 °C under 5% CO2. Cell-free supernatants were collected after centrifugation of the culture plates for 10 min at 400 × g and stored at −20 °C until the determination of the cytokine content. Immunological determination of TNFα in the cell supernatant was performed in a sandwich-ELISA as described earlier (OptEIA; BD, Heidelberg, Germany). TNFα was determined and measured following manufacturer’s instructions and results are the average of two assays.
LP preparations were pre-warmed for 30 min at 37 °C, and added to the cultures at 20 μl per well. In inhibition experiments, different SALP were added directly after LPS/LP/LTA administration.
Since the data of the stimulation of human MNC by the bacterial and synthetic LP was taken over a time period of more than 6 years, the TNFα production lead to considerable variations due to different batches of LP and of Pep19-2.5, and in particular due to variations resulting from blood samples of different donors. Because the main emphasis laid here is the efficiency of the peptide to inhibit the cytokine production, most figures describe the inhibition efficieny of the peptide in %, by presenting the means ± SEM of at least 3 independent experiments. The absolute values of the cytokine production, where of note, is given separately in the text.

TLR4 = assay: IL-8 production in HEK cells transfected with a TLR4 expression vector; assay type: cell-based; details: for IL-8 in TLR4-transfected cells: HEK cells, ELISA
human TLR2 = assay: IL-8 production in HEK293 cells transfected with TLR2; assay type: cell-based; details: HEK293, 18 hours stimulation, relatively high LP concentrations; ELISA
Description: For HEK cell activation, human IL-8 was determined by sandwich enzyme-linked immunosorbent assay using IL-8 cytoset from BIOSOURCE (Life Technologies GmbH, Darmstadt Germany) exactly according to the manufacturer’s protocol. For transient transfection, HEK293 cells were plated at a density of 2.5 × 10^4/well in 96-well plates in Dulbecco’s modified Eagle’s medium (PAA, Pasching, Germany). The following day, cells were transfected using Lipofectamine (Life technologies) according to the manufacturer’s protocol. Expression plasmid containing the FLAG-tagged version of human TLR2 was a kind gift from P. Nelson, Seattle, WA and subcloned into pREP9 (Life Technologies). TLR2 plasmid was used at 100 ng/transfection. After 24 hours of transfection, cells were washed and stimulated for 18 hours with indicated compounds and positive controls. Finally, supernatants were collected and the interleukin-8 content was quantified using a commercial ELISA (Life technologies).
Data shown are the mean ± S.D. of triplicate samples of one experiment and representative of two independent experiments.

Balb/C mice [2] = assay: Lethal toxemia in galactosamine-sensitized mice; assay type: in vivo, mouse; details: for physical activity / survival score of each animal: n = 3, one score per animal
Description: (§1) Seven-week-old female SPF-free Balb/C mice of 20 g of body weight, approximately, were purchased from Harlan Spain (Harlan Interfauna Iberica S.A., Barcelona, Spain) and randomly distributed in experimental groups (at least 4 animals per group except for the determination of lethal dose (n = 3)). Sample size was calculated based on previous results with the same animal model. Animals were housed in individually ventilated cages (5 mice per cage) bedded with hardwood bedding. Mice were provided ad libitum access to feed and water and lighting was adjusted to a 14-hour light/10-hour dark cycle. During the experiments, the condition of the animals was monitored daily every 4 hours and animals displaying persistent motor ataxia and hunched posture were euthanized.
To determine the lethal dose of FSL-1 in mice, the method of Galanos and collaborators[48] was followed with some modifications. Briefly, animals were intraperitoneally inoculated with increasing amounts of FSL-1 (50 ng, 500 ng, 5 μg and 50 μg) supplemented with 18 mg of D-galactosamine in a final volume of 200 μl of pyrogen-free saline. Galactosamine is known to sensitize mice to pro-inflammatory compounds such as LPS, thus making it possible to use lower amounts of the stimulatory drug[46]. The ability of Aspidasept® to protect mice from FSL-1 dependent lethal toxemia was assessed by co-administering FSL-1 (4 μg/mouse) with D-galactosamine (18 mg/mouse) intraperitoneally.
Results were globally analyzed by means of a Kaplan-Meier survival analysis (SPSS 15.0). When the survival plots were parallel, the data were compared by the log-rank test, whereas the Breslow-Gehan-Wilcoxon test was applied when the plots intersected.

Balb/C mice [3] = assay: Serum cytokine response in mice after intraperitoneal inoculation; assay type: in vivo, mouse; details: 40 μg FSL-1 i.p.
Description: as §1
To study if FSL-1 had pro-inflammatory cytokine-inducing activity, animals were intraperitoneally inoculated with 40 μg of FSL-1 resuspended in 200 μl of pyrogen-free saline. Blood samples were taken both at 1.5 h or 4 h after FSL-1 challenge to measure TNFα and IL-6 levels. For this purpose, mice were anesthetised, a blood sample was obtained by the retroorbital plexus and serum cytokine levels were measured using Quantikine Immunoassays kits (R&D systems, Minneapolis, USA) following manufacturer’s instructions. Differences between groups were statistically analyzed using the Mann-Whitney U test.
To evaluate the ability of Aspidasept® to neutralize the FSL-1 induced pro-inflammatory cytokines, a group of animals received by the intraperitoneal route first 40 μg of FSL-1 and then 400 μg of the drug resuspended in 100 μl of pyrogen-free saline. This second injection was administered immediately after FSL-1 challenge at a different site of the peritoneum. TNFα and IL-6 levels were measured (see above) at 1.5 h or 4 h after challenge, respectively, coinciding with the peak of cytokine secretion, as determined in preliminary experiments.

guinea pigs = details: ref Greis et al. 40; cited from earlier work
Excerpt: (§2) Whereas for Gram-negative species the major inflammation- and sepsis-inducing compounds are endotoxins, the responsible compounds for endotoxin-free organisms (Gram-positive bacteria, fungi, mycoplasma, some Gram-negative bacteria) are poorly described or unknown. From the present data, however, it appears to be that LP are the decisive compounds for inflammation- a ...

rats = details: ref Hübschle et al. 39; cited from earlier work
Excerpt: as §2

human MNCs = details: cited from earlier work
Excerpt: In this section, we first present in vitro data on the production of pro-inflammatory cytokines by human cells in response to LP or LTA from different origin and its neutralization by SALP. Then, we used a mouse model of acute toxemia to characterize the in vivo expression of those cytokines and to study if SALP can protect animals against lethal LP-induced sepsis.

macrophages = details: LP 19 KDa from M. tuberculosis; cited from earlier work
Excerpt: When adding the polycationic polymyxin B (PMB), a traditional AMP[43] to the shortened 19 KDa LP, a similar lack of interaction was observed.

[4] = molecular target: T1, FSL-1 (fibroblast-stimulating lipopeptide) (Mycoplasma salivarium); assay: ITC; lipopeptide 0.05 mM dispersion in the cell (1.5 ml); peptide 1 mM titrated in 3 μl aliquots every 5 min; 37 °C; MCS calorimeter; details: both partners purified
T1 construct: the first C stands for the lipidated cysteine; Shortened analogue of the 44-kDa lipoprotein LP44 of Mycoplasma salivarium, its N-terminal part; stood in the assays as an aggregate dispersion of the lipopeptide; also called LP FSL-1; source: synthetic lipopeptide, EMC microcollections GmbH (Tübingen)
T1 peptide: [Pam2Cys]GDPKHPKSF

Molecule: Pam2CSK4
- biological activity [1]: biologically active

Molecule: Pam2Cys-GNNDESNISFKEK [MALP-2, reference compound]
- stimulation of MNC (TNFα induction) compared with LPS (human mononuclear cells): similarly active

Molecule: Pam3Cys-SSSNNDAAGNGAAQT [LP P6, synthetic triacyl LP, shortened analogue of protein P6 from Haemophilus influenzae]
- IL-8 in TLR4-transfected cells at high concentration (TLR4; 10 μg/ml): significant amounts of IL-8
- IL-8 secreting activity in TLR-2 transfected cells (human TLR2): considerable IL-8 secreting activity
- TNFα when adding 100 ng/ml of LP (human mononuclear cells; data not shown): no detectable amounts
- concentration necessary to induce an observable TNFα secretion (human mononuclear cells; data not shown): 10 µg/mL

Molecule: Pam2Cys-GDPKHPKSF [FSL-1, fibroblast-stimulating lipopeptide, synthetic diacyl LP, shortened analogue of the 44-kDa LP LP44 of Mycoplasma salivarium]
- physical activity / survival score of each animal (Balb/C mice [2]; 500 ng FSL-1 i.p. + D-galactosamine 18 mg/mouse, 24 hours): † † †
- physical activity / survival score of each animal (Balb/C mice [2]; 500 ng FSL-1 i.p. + D-galactosamine 18 mg/mouse, 48 hours): † † †
- time to symptoms of sepsis (reduced motor activity, lethargy, shivering, piloerection) (Balb/C mice [2]; 4 μg FSL-1 i.p. + D-galactosamine 18 mg/mouse): ≤ 120 min
- physical activity / survival score of each animal (Balb/C mice [2]; 5 μg FSL-1 i.p. + D-galactosamine 18 mg/mouse, 24 hours): † † †
- physical activity / survival score of each animal (Balb/C mice [2]; 5 μg FSL-1 i.p. + D-galactosamine 18 mg/mouse, 48 hours): † † †
- physical activity / survival score of each animal (Balb/C mice [2]; 50 μg FSL-1 i.p. + D-galactosamine 18 mg/mouse, 24 hours): † † †
- physical activity / survival score of each animal (Balb/C mice [2]; 50 μg FSL-1 i.p. + D-galactosamine 18 mg/mouse, 48 hours): † † †
- amount necessary to kill 100% of the animals in 48 h (LD100) (Balb/C mice [2]; galactosamine-sensitized Balb/C mice, i.p., n = 3 per dose): 500 ng/mouse
- LD100 relative to the equivalent LD100 of Salmonella minnesota LPS (Balb/C mice [2]; identical experimental conditions, LPS value from ref 24): 10 times higher
- stimulation of MNC (TNFα induction) compared with LPS (human mononuclear cells): potency similar to that of LPS; also recorded: similarly active
- time of peak serum IL-6 level (Balb/C mice [3]; data not shown): 4 h
- time of peak serum TNFα level (Balb/C mice [3]; data not shown): 90 min
- serum TNFα response (Balb/C mice [3]; n = 4, 1.5 h): potent
- serum IL-6 response (Balb/C mice [3]; n = 4, 4 h): potent
- in vivo biological activity (guinea pigs): High
- in vivo biological activity (rats): High

Molecule: Pam3Cys-SKKKK [Pam3CSK4, reference compound]
- IL-8 secreting activity in TLR-2 transfected cells (human TLR2): considerable IL-8 secreting activity
- activation of MNC at 1 ng/ml (human mononuclear cells; 1 ng/ml, data not shown): not
- activation of MNC at 10 ng/ml (human mononuclear cells; 10 ng/ml, data not shown): some activation takes place
- stimulation of MNC (TNFα induction) compared with LPS (human mononuclear cells): markedly lower level than LPS
- biological activity [1]: biologically active

Molecule: GKKYRRFRWKFKGKWFWFG [Pep19–4, synthetic anti-LPS peptide (SALP)]
- inhibition efficiency in the biological experiments (human MNCs): moderate

Molecule: GRRYKKFRWKFKGRWFWFG [Pep19–8, synthetic anti-LPS peptide (SALP)]
- inhibition efficiency in the biological experiments (human MNCs): low

Molecule: Pam3Cys-SQEPAAPAAEATPAG [LP H8, synthetic triacyl LP, shortened analogue of LP blp NG from Neisseria gonorrhoeae]
- IL-8 in TLR4-transfected cells (TLR4): nearly no IL-8 signal
- IL-8 secreting activity in TLR-2 transfected cells (human TLR2): considerable IL-8 secreting activity
- TNFα when adding 100 ng/ml of LP (human mononuclear cells; data not shown): no detectable amounts
- concentration necessary to induce an observable TNFα secretion (human mononuclear cells; data not shown): 10 µg/mL

Molecule: Pam3Cys-KQNVSSLDEKNSVSV [LP OspA, synthetic triacyl LP, shortened analogue of OspA from Borrelia burgdorferi]
- IL-8 in TLR4-transfected cells (TLR4): nearly no IL-8 signal
- IL-8 secreting activity in TLR-2 transfected cells (human TLR2): considerable IL-8 secreting activity

Molecule: Pam3Cys-NNSGKDGNTSANSAD [LP OspC, synthetic triacyl LP, shortened analogue of OspC from Borrelia burgdorferi]
- IL-8 in TLR4-transfected cells (TLR4): nearly no IL-8 signal
- IL-8 secreting activity in TLR-2 transfected cells (human TLR2): considerable IL-8 secreting activity

Molecule: GCRRFKKFKKWRYRGRFWFWCFG [Pep19–12]
- inhibition of Pam3CSK4-induced cytokine (TNFα) production (human mononuclear cells; stimulus Pam3CSK4 1000, 100, 10 ng/ml, [LP]:[Pep] up to 1:100 weight%): no or only a small inhibition

Molecule: polymyxin B
- inhibition of the stimulation of macrophages by the shortened 19 KDa LP (macrophages): lack of biological inhibition

B1: Pep19-2.5 (Aspidasept^®) (peptide)
peptide: GCKKYRRFRWKFKGKFWFWG-NH2
notes: designed synthetic anti-LPS peptide, 20-mer; purity >95% (HPLC, MALDI-TOF); also called SALP; synthetic anti-LPS peptide; source: synthetic peptide; batches produced by BACHEM (Bubendorf, Switzerland)
- binding result [4]: binds
